In PubChem BioAssay (NCI):
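How tested: cells in 96-well plates exposed to compound for 48 hours at five concentrations. GI50 is the concentration that inhibits growth by half. The concentration for full growth arrest is given as TGI.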

Columns and labels:
Assay in all cases: NCI tumour cell line growth inhibition, 48 h
MCF7 breast = test system: MCF7 breast
OVCAR-3 ovarian = test system: OVCAR-3 ovarian
U251 CNS = test system: U251 CNS
A549 NSCLC = test system: A549 NSCLC
RXF 393 renal = test system: RXF 393 renal
SK-MEL-28 melanoma = test system: SK-MEL-28 melanoma
MALME-3M melanoma = test system: MALME-3M melanoma
ACHN renal = test system: ACHN renal
CAKI-1 renal = test system: CAKI-1 renal
SF-539 CNS = test system: SF-539 CNS

Compound | GI50 (MCF7 breast) [µM] | TGI (MCF7 breast) [µM] | GI50 (OVCAR-3 ovarian) [µM] | TGI (OVCAR-3 ovarian) [µM] | GI50 (U251 CNS) [µM] | TGI (U251 CNS) [µM] | GI50 (A549 NSCLC) [µM] | TGI (A549 NSCLC) [µM] | GI50 (RXF 393 renal) [µM] | TGI (RXF 393 renal) [µM] | GI50 (SK-MEL-28 melanoma) [µM] | TGI (SK-MEL-28 melanoma) [µM] | GI50 (MALME-3M melanoma) [µM] | TGI (MALME-3M melanoma) [µM] | GI50 (ACHN renal) [µM] | TGI (ACHN renal) [µM] | GI50 (CAKI-1 renal) [µM] | TGI (CAKI-1 renal) [µM] | GI50 (SF-539 CNS) [µM] | TGI (SF-539 CNS) [µM]
COC(=O)Nc1nc2ccc(Sc3ccc(NC(=O)Nc4cc(C(F)(F)F)ccc4F)cc3)cc2[nH]1 | 0.988 | 5.33 | 3.05 | 6.26 | 3.27 | 7.28 | 3.01 | 7.06 | 3.29 | 8.05 | 2.81 | 16.5 | 2.99 | 23.6 | 3.58 | 10.2 | 3.86 | 18.8 | 3.23 | 7.98
CCNC(=O)Oc1ccc(/C(=C(\C)c2ccc(Cl)cc2)c2ccc(OCCN3CCCCC3)cc2)cc1 | 0.484 | 8.06 | 3.52 | 13.4 | 4.19 | 14.5 | 8.47 | 22.4 | 2.19 | 8.77 | 1.83 | 3.73 | 1.78 | 3.9 | 4.78 | 16.7 |  |  | 1.81 | 3.59
COc1ncnc2c(-c3ccco3)cn(COCc3ccccc3)c12 |  |  | > 50 | > 50 | 10.6 | > 50 | > 50 | > 50 | > 50 | > 50 | > 50 | > 50 | > 50 | > 50 | > 50 | > 50 | > 50 | > 50 | > 50 | > 50
Cc1cccc(CC(C)(C)C)c1NC(=O)C(=O)C(C(=O)c1ccc2ccccc2c1)C1OC(=O)c2ccccc21 (stereo not given) |  |  |  | > 100 |  | 17.8 |  | 40.9 |  | 14.5 |  | 18.8 |  | 27.4 |  | 56.2 |  | > 100 |  | 11.8
Cc1cccc(N2C(=O)/C(=C/c3ccc(N(CCC#N)CCC#N)cc3C)N=C2c2cc([N+](=O)[O-])ccc2Cl)c1 |  |  |  | > 100 |  | > 100 |  | > 100 |  |  |  | > 100 |  | > 100 |  | > 100 |  | > 100 |  | > 100
CCOC(=N)CC(=O)NC(C)c1ccccc1 (stereo not given) |  |  |  | > 100 |  | > 100 |  | > 100 |  | > 100 |  | > 100 |  | > 100 |  | > 100 |  | > 100 |  | > 100
O=C1c2cccc3cccc(c23)C(=O)N1CCCN1CCN(CCCN2C(=O)c3cccc4cccc(c34)C2=O)CC1 |  |  |  | > 100 |  | > 100 |  | > 100 |  | > 100 |  |  |  | > 100 |  | > 100 |  | > 100 |  | > 100
C#Cc1cccc(Nc2ncnc3ccc(-c4cncc(NS(C)(=O)=O)c4)cc23)c1 | 1.5 | 8.71 | 1.15 | 3.25 | 2.5 | 10.3 | 3.63 | 14.9 | 1.68 | 4.84 | 1.47 | 14.1 | 1.11 | 9.13 | 0.979 | 49.6 |  |  | 1.46 | 4.96
C=C(C)[C@]12CC(C)C34OC(/C=C\C=C\CCCCCCCCC)(O[C@@H]1[C@@H]3[C@@H]1O[C@]1(CO)[C@@H](O)[C@]1(O)C(=O)C(C)=C[C@@H]41)O2 (stereo not given in full) |  | 23.4 |  | 16.3 |  | 49.9 | < 0.0001 | 20.9 |  | 28.6 |  | 25.6 | < 0.0001 | 23.1 |  | 22.8 |  |  |  | 17.2
CCN1CC2(C)CC[C@@H](OC)C34[C@@H]2[C@H](OC(C)=O)C2(OCO[C@@]25C[C@H](OC)C2C[C@]3(O)[C@@H]5[C@H]2O)[C@H]14 |  |  |  | > 100 |  | > 100 |  | > 100 |  | > 100 |  | > 100 |  | > 100 |  |  |  | > 100 |  | > 100
C/C(=N\NC(=S)N1CCC(C2CCN(C(=S)N/N=C(\C)c3ccccn3)CC2)CC1)c1ccccn1 |  |  |  | > 100 |  | > 100 |  | > 100 |  | > 100 |  | > 100 |  | > 100 |  | > 100 |  | > 100 |  | > 100
Cc1cc2c(cc1Cl)SC1=NN(C)C(c3ccccc3O)N1S2(=O)=O (stereo not given) | > 100 | > 100 | 46 | > 100 | 47.7 | > 100 | 86.2 | > 100 |  |  | 86.2 | > 100 | > 100 | > 100 | > 100 | > 100 | > 100 | > 100 | 32.1 | > 100
O=C1CC2Sc3ccccc3N=C2N1c1ccc(Cl)cc1Cl (stereo not given) |  |  |  | > 100 |  | > 100 |  | > 100 |  | > 100 |  | > 100 |  | > 100 |  | > 100 |  |  |  | 
O=C1/C(=C/c2ccccc2)CN(C(=O)OCC(Cl)(Cl)Cl)C/C1=C\c1ccccc1 |  |  |  |  |  | 3.28 |  | 20.5 |  | 3.87 |  | 3.25 |  | 11.9 |  | 4.68 |  |  |  | 14
Cc1ns/c(=N\C(=S)N(C)C)n1C |  |  |  |  |  | > 100 |  | > 100 |  | > 100 |  | > 100 |  | > 100 |  | > 100 |  | > 100 |  | > 100
CCCCCCN1C(=O)CN=C1Nc1ccc2cc3ccc(NC4=NCC(=O)N4CCCCCC)cc3nc2c1 | 1.66 | 3.95 | 1.36 | 3.08 | 1.63 | 3.13 | 2.03 | 3.96 | 1.52 | 3.22 | 2.21 | 5.92 | 1.71 | 3.59 | 1.76 | 3.42 |  |  | 1.81 | 3.63
CCCCCCCCCCCCCCCCCC1=NC(C)(C)CN1CCO | 1.78 | 3.32 | 1.61 | 2.97 | 1.65 | 3.01 |  |  |  |  | 1.81 | 3.2 | 2.18 | 5.6 | 1.58 | 2.99 | 1.6 | 3.37 | 1.75 | 3.15
